From US9216187B2, “Soyasapogenol composition” (J-OIL MILLS, INC., priority 2011, dated 2015)

Assay: Evaluation of absorption of soyasapogenol composition, blood soyasapogenol B at 1 to 12 hours and AUC (Examples 3 to 4)
Type: in vivo
Details: rat, plasma, oral, male SD rats, single dose with feeding needle, 100 μmol/kg body weight in terms of saponin aglycone
Experimental: To each of the obtained plasma, 0.2 M Na acetate buffer solution (pH 5.5) in an amount same as that of the plasma was added. Subsequently, 3000 units of β-glucuronidase (product name: H-2, product of Sigma-Aldrich, Co. LLC) were added, and an enzyme reaction was allowed at 37° C. for 12 hours. After termination of the reaction, 3 ml of a mixture liquid of methanol:acetonitrile (1:1) and internal standard formononetin (product of Sigma-Aldrich, Co. LLC) were added to the enzyme treatment solution, followed by centrifugation, and then a supernatant was collected. An operation of adding 3 ml of the mixture liquid of methanol:acetonitrile (1:1) to a residue and performing centrifugation was repeated twice, and a supernatant was collected after each of the operations. The collected supernatants were mixed and subjected to drying under reduced pressure using a rotary evaporator.
8-week-old male SD rats (Charles River Laboratories Japan, Inc.) were divided into groups so that one group consists of 4 rats, and each of the compositions of Examples 3 and 4 and Comparative Example 1 was suspended into a 0.5% CMC solution, followed by a single dose administration of the suspension in an equivalent amount (100 μmol/kg body weight) in terms of saponin aglycone to each of the rats with a feeding needle. Blood sampling was conducted at 1, 3, 8 and 12 hours after the administration, and plasma was obtained from each of the blood samples. Each of the obtained plasma was subjected to the pre-treatment and the HPLC-MS analysis in the same manner as in Example 1 to examine the soyasapogenol B concentration in the blood. The blood soyasapogenol B concentration at 1 to 12 hours after the administration and AUCs (areas under curve of the blood concentration) are shown in Table 3.

Structure (SMILES): CC1(C)C[C@@H](O)[C@]2(C)CC[C@]3(C)C(=CC[C@@H]4[C@@]5(C)CC[C@H](O)[C@](C)(CO)[C@@H]5CC[C@]43C)[C@@H]2C1 [Comp. Ex. 1, soyasapogenol B]
- AUC (100 umol/kg, 1 to 12 hours, read-out: AUC (area under curve of the blood soyasapogenol B concentration)): 2910 ng·h/mL
- concentration at 1 h (1 hour, read-out: Blood Soyasapogenol B Concentration 1 hour after): 317 ng/mL
- concentration at 3 h (3 hours, read-out: Blood Soyasapogenol B Concentration 3 hours after): 280 ng/mL
- concentration at 8 h (8 hours, read-out: Blood Soyasapogenol B Concentration 8 hours after): 293 ng/mL
- concentration at 12 h (12 hours, read-out: Blood Soyasapogenol B Concentration 12 hours after): 68.1 ng/mL
